Reference: article PMC12040169 (PLOS Biology, 2025)
Converted amounts (≈) assume the structure as drawn.

Experiments:
[1] = target: T1, ctFabH (CTL2 FabH), His6(-fMet)SG-ctFabH (Chlamydia trachomatis, UniProt O84242); test: continuous UV assay of acetoacetyl-CoA at […] nm; format: biochemical; conditions: 20 µM enzyme, 100 µM acetyl-CoA, 100 µM malonyl-CoA, pH 8.0, 25 °C, 50 mM MgCl2
T1 construct: synthetic gene, modified pRSF-Duet1, E. coli host; partly acylated (mainly pentanoyl) as purified
T1 sequence (O84242 2-327): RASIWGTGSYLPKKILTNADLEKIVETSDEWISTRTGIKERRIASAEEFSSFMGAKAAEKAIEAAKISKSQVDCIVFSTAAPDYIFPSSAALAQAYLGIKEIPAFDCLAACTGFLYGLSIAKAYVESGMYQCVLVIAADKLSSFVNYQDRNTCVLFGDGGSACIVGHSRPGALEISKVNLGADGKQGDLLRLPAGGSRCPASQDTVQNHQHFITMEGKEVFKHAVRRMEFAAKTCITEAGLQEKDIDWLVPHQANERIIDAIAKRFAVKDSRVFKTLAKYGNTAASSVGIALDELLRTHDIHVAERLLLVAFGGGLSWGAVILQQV

B. adolescentis = test system: T2, B. adolescentis; test: microbe, parasite or virus in culture; design: Microbial growth in liquid dilution assay, OD600 relative to DMSO control; conditions: Bifidobacterium adolescentis; estimated IC50; read-out: B. adolescentis, IC50 (µM) estimate
T2 construct: DSM 20083
Source text: (§1) Compound effects on commensal microbes in dilution assay As our objective was to discover compounds that inhibit Chlamydia selectively but spare commensal bacteria, we further tested 15 of our top compounds (c1e–c10e and c1v–c5v) against five bacterial species, Escherichia coli, Lactobacillus reuteri, Enterococcus faecalis, Bacteroides thetaiotaomicron, and Bifidobacterium adolescentis, representing the four dominating phyla of the human gut microbiota. […] Exceptions were c3e and c5e, which at 30 µM were inhibitory to some species. […] Of note, c1e–c3e had little or no effect on the growth of an even larger set of species of gut bacteria, also including Blautia coccoides, Prevotella copri, Prevotella histicola, Bacteroides fragilis, and Dubosiella newyorkensis, when tested in radial diffusion assays, in which the bacteria were exposed to compounds for 24–48 h before measurements of growth inhibition zones (S10B Fig and S5G Data).

B. thetaiotaomicron = test system: T3, B. thetaiotaomicron; test: microbe, parasite or virus in culture; design: Microbial growth in liquid dilution assay, OD600 relative to DMSO control; conditions: Bacteroides thetaiotaomicron; estimated IC50; read-out: B. thetaiotaomicron, IC50 (µM) estimate
T3 construct: DSM 2079
Source text: as §1

E. coli = test system: T4, E. coli; test: microbe, parasite or virus in culture; design: Microbial growth in liquid dilution assay, OD600 relative to DMSO control; conditions: Escherichia coli; estimated IC50; read-out: E. coli, IC50 (µM) estimate
T4 construct: DSM 301
Source text: as §1

E. faecalis = test system: T5, E. faecalis; test: microbe, parasite or virus in culture; design: Microbial growth in liquid dilution assay, OD600 relative to DMSO control; conditions: Enterococcus faecalis; estimated IC50; read-out: E. faecalis, IC50 (µM) estimate
T5 construct: DSM 20478
Source text: as §1

L. reuteri = test system: T6, L. reuteri; test: microbe, parasite or virus in culture; design: Microbial growth in liquid dilution assay, OD600 relative to DMSO control; conditions: Limosilactobacillus reuteri; estimated IC50; read-out: L. reuteri, IC50 (µM) estimate
T6 construct: DSM 20016
Source text: as §1

L. crispatus = test system: T7, L. crispatus; test: microbe, parasite or virus in culture; design: Microbial growth in liquid dilution assay, OD600 relative to DMSO control; conditions: Lactobacillus crispatus; estimated IC50; read-out: L. crispatus, IC50 (µM) estimate
T7 construct: DSM 20584

L. iners = test system: T8, L. iners; test: organism not typed; design: Microbial growth in liquid dilution assay, OD600 relative to DMSO control; conditions: estimated IC50; read-out: L. iners, IC50 (µM) estimate
T8 construct: DSM 13335

G. vaginalis = test system: T9, G. vaginalis; test: microbe, parasite or virus in culture; design: Microbial growth in liquid dilution assay, OD600 relative to DMSO control; conditions: Gardnerella vaginalis, read-out: G. vaginalis, IC50 (µM) estimate
T9 construct: DSM 4944

C. albicans = test system: T10, C. albicans; test: microbe, parasite or virus in culture; design: Microbial growth in liquid dilution assay, OD600 relative to DMSO control; conditions: Candida albicans, read-out: C. albicans, IC50 (µM) estimate
T10 construct: DSM 1577

[2] = test system: T11, CTL2-GFP (C. trachomatis L2/434/Bu, GFP-expressing); test: microbe, parasite or virus in culture; design: Intracellular C. trachomatis growth in HeLa cells, bulk GFP fluorescence relative to DMSO; conditions: Chlamydia trachomatis, HeLa, 28.5 h; bulk GFP
T11 construct: L2/434/Bu, GFP-expressing
Experimental: (§2) MICs were calculated as described above.

[3] = test system: T11, CTL2-GFP (C. trachomatis L2/434/Bu, GFP-expressing); test: microbe, parasite or virus in culture; design: species or system HeLa; Intracellular C. trachomatis growth in HeLa cells, bulk GFP fluorescence relative to DMSO; conditions: Chlamydia trachomatis, 28.5 h; bulk GFP
Experimental: as §2

in vitro = test: in vitro; design: Viability of infected HeLa host cells, resazurin conversion, bulk resorufin fluorescence relative to DMSO; conditions: human, hela cells; bulk resorufin, mean of 3
[4] = test system: T11, CTL2-GFP (C. trachomatis L2/434/Bu, GFP-expressing); test: microbe, parasite or virus in culture; design: C. trachomatis growth in HeLa, dose-response, mean of bulk GFP fluorescence and imaged total inclusion area; conditions: Chlamydia trachomatis, HeLa, 28.5 h; mean of GFP and inclusion area
Outline: (§3)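 Infected cells treated with library compounds were read for bulk GFP (chlamydial growth) and resorufin fluorescence (host viability), then fixed, Hoechst-stained and imaged. Inclusion area and number from GFP, plus nuclei counts, served as additional growth and viability proxies; MICs derived as previously described.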

[5] = test system: T11, CTL2-GFP (C. trachomatis L2/434/Bu, GFP-expressing); test: microbe, parasite or virus in culture; design: species or system HeLa; C. trachomatis growth in HeLa, dose-response, mean of bulk GFP fluorescence and imaged total inclusion area; conditions: Chlamydia trachomatis, 28.5 h; mean of GFP and inclusion area
Outline: as §3

[6] = target: T12, acyl-modification-free ctFabH (Chlamydia trachomatis, UniProt O84242); test: intact protein LC/MS; format: biochemical; conditions: covalent acyl-enzyme intermediate; 10 µM protein, 50 µM acyl-CoA, pH 7.0
T12 construct: gene fabH
T12 sequence (O84242 2-327): T1 sequence (O84242 2-327)

Compound	IC50 (B. adolescentis)	IC50 (B. thetaiotaomicron)	IC50 (E. coli)	IC50 (E. faecalis)	IC50 (L. reuteri)	IC50 (L. crispatus)	IC50 (L. iners)	IC50 (G. vaginalis)	viability at 28.5 h, 0.000416667 µM (in vitro)	viability at 28.5 h, 0.00125 µM (in vitro)	viability at 28.5 h, 0.00375 µM (in vitro)	viability at 28.5 h, 0.0123333 µM (in vitro)	viability at 28.5 h, 0.037 µM (in vitro)	viability at 28.5 h, 0.111 µM (in vitro)	viability at 28.5 h, 0.333 µM (in vitro)	viability at 28.5 h, 1 µM (in vitro)	viability at 28.5 h, 3 µM (in vitro)	viability at 28.5 h, 10 µM (in vitro)	viability at 28.5 h, 30 µM (in vitro)	IC50 [4]	further results
CC(=O)SCCNC(=O)CCNC(=O)[C@H](O)C(C)(C)COP(=O)(O)OP(=O)(O)OC[C@H]1O[C@@H](n2cnc3c(N)ncnc32)[C@H](O)[C@@H]1OP(=O)(O)O [acetyl-CoA]																					continuous UV assay of acetoacetyl-CoA at 302 nm [1]: using acetyl-CoA and malonyl-CoA (instead of malonyl-ACP) as substrates
Cc1noc(NS(=O)(=O)c2ccc(NC(=O)CSc3nc4ccccc4s3)cc2)c1C [c1v]	> 30 µM	> 30 µM	> 30 µM	> 30 µM	> 30 µM	> 30 µM	> 30 µM	> 30 µM													IC50 (C. albicans): > 30 µM; IC50 [2]: 0.412 µM; MIC [3]: 0.552 µM (≈ 0.262 µg/mL)
O=C(c1ccc(-c2ccc(F)cc2)o1)N1C[C@H]2CC[C@](O)(c3ccc(F)cc3)[C@H]2C1 [c2e]	> 30 µM	> 30 µM	> 30 µM	> 30 µM	> 30 µM	> 30 µM	> 30 µM	> 30 µM	90.3%	85.8%	93.6%	89%	91.7%	95.5%	95.7%	93.7%	98.2%	98.8%	116%	0.0961 µM	IC50 (C. albicans): > 30 µM; MIC [5]: 0.139 µM (≈ 0.0569 µg/mL)
O=C(N/N=C\c1ccc([N+](=O)[O-])o1)c1nc(-c2ccccc2)cc(-c2ccccc2)n1 [c3e]	18.3 µM	10.3 µM	> 30 µM	15.4 µM	> 30 µM	> 30 µM	> 30 µM	> 30 µM	92%	92.4%	88.3%	89.2%	86.8%	92.2%	91.6%	90.7%	90%	98.9%	107%	0.126 µM	IC50 (C. albicans): > 30 µM
c1c(C2CC2)[nH]c2nc(N3CCCC3)nc(N3CCCC3)c12 [c7e]	> 30 µM	> 30 µM	> 30 µM	> 30 µM	> 30 µM				88.8%	85.2%	86.7%	86.6%	89.7%	85.9%	89.7%	87.4%	89.6%	86.6%	81.1%	0.443 µM	MIC [5]: 0.669 µM (≈ 0.199 µg/mL)
COc1ccc(CC(=O)N2CCCC(c3nc(C)c4c(n3)N(CC3CC3)CCC4)C2)cc1 (stereo not drawn) [c52e]									85.5%	91.1%	88.5%	92.2%	88.5%	91.4%	88.5%	96.8%	90.3%	95.6%	102%	8.46 µM	MIC [5]: 9.34 µM (≈ 4.06 µg/mL)
CC(C)CC(=O)SCCNC(=O)CCNC(=O)[C@H](O)C(C)(C)COP(=O)(O)OP(=O)(O)OC[C@H]1O[C@@H](n2cnc3c(N)ncnc32)[C@H](O)[C@@H]1OP(=O)(O)O [isovaleryl-CoA]																					intact protein LC/MS [6]: 2-methylbutyryl-CoA or isovaleryl-CoA, as expected, generated the corresponding acyl-enzyme intermediates
